Holding throughout (test): Method 1: intracellular Ca2+ release (FLIPR, Calcium 5) in recombinant CHO-K1 cells
What all share (type): cell-based

The target in one assay is T1, human S1PR1 receptor (Homo sapiens, UniProt P21453).
T1 construct: host or cells: CHO-K1
The following applies: (1): determined with method 1; read-out: S1P1 EC50. In short, it runs like this: (§1)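 Potency here reflects Ca2+ release in recombinant CHO-K1 cells carrying Gq/i5, measured by Calcium 5 fluorescence on FLIPR at RT in pH 7.4 Hepes-buffered HBSS with probenecid. EC50 values were fitted after scaling to phospho-fingolimod.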

A further assay has as its target T2, human S1PR3 receptor (Homo sapiens, UniProt Q99500).
T2 construct: host or cells: CHO-K1
The note with it: (1): determined with method 1; read-out: S1P3 EC50. In short, it runs like this:
as §1

A further assay has as its target T3, human S1PR4 receptor (Homo sapiens, UniProt O95977).
T3 construct: host or cells: CHO-K1
T3 sequence (O95977 1-384): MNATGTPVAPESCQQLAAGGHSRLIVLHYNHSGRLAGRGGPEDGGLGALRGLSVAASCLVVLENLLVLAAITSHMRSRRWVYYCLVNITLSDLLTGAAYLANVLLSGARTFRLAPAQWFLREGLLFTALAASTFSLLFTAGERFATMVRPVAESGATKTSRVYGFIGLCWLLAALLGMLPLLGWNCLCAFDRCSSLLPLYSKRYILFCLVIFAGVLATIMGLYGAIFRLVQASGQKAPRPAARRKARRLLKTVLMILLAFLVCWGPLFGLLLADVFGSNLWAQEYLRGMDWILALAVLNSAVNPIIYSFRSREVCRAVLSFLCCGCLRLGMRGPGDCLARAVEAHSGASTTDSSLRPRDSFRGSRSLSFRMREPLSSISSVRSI
The note with it: (1): determined with method 1; read-out: S1P4 EC50. In short, it runs like this: as §1

The target of a further assay is T4, human S1PR5 receptor (Homo sapiens, UniProt Q9H228).
T4 construct: host or cells: CHO-K1
T4 sequence (Q9H228 whole entry): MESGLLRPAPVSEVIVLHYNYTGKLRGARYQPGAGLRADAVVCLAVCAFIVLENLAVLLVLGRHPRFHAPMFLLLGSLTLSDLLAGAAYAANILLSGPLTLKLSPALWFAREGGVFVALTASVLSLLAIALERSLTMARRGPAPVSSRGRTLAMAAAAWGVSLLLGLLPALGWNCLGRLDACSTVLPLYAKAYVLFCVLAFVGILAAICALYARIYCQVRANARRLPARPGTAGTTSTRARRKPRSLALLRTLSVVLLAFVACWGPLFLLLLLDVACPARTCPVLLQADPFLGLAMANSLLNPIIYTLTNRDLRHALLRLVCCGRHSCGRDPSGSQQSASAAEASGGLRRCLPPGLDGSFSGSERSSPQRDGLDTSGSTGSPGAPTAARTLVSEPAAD
The note with it: agonist potency, determined with method 1 (symbols A-D); read-out: S1P5 EC50 range. In short, it runs like this: as §1

Structures can show the parent of a compound that is named as a salt. Bounds are passed on as bounds.

T1 sequence (P21453 whole entry): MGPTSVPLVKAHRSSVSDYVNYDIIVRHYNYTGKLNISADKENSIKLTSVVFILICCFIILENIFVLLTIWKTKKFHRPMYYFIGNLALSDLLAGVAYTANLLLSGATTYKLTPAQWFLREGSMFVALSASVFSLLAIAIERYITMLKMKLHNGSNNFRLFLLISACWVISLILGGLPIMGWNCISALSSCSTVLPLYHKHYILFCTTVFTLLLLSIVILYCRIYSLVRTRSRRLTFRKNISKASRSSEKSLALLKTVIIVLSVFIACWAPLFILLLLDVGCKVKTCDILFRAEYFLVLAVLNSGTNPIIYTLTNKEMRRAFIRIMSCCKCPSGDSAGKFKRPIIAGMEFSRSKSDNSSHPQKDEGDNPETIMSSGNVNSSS
T2 sequence (Q99500 whole entry): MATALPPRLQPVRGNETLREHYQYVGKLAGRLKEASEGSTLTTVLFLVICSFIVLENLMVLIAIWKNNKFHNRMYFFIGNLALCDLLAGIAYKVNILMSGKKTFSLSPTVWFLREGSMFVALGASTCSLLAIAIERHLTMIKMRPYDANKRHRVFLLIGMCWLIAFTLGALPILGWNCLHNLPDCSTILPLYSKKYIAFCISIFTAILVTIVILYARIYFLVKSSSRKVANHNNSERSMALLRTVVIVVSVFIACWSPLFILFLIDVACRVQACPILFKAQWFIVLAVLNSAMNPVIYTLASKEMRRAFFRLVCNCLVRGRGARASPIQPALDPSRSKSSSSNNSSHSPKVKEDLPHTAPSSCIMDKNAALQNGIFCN

Turning to `CC(CC(=O)O)CN1CCc2nc(-c3ccc(OCc4ccc(Cl)cc4)cc3)ncc2C1` (centres unmarked) [Compound 259, 4-(2-(4-((4-chlorobenzyl)oxy)phenyl)-7,8-dihydropyrido[4,3-d]pyrimidin-6(5H)-yl)-3-methylbutanoic acid], the concentration giving a half-maximal response (EC50) was more than 1000 nM on human S1PR1 receptor, more than 1000 nM on human S1PR3 receptor, more than 1000 nM on human S1PR4 receptor and 10 to 100 nM at human S1PR5 receptor.
Take `CC(CC(=O)O)CN1CCc2nc(-c3ccc(OCc4ccccc4C(F)(F)F)cc3F)ncc2C1` (centres unmarked) [Compound 260, 4-[2-[2-fluoro-4-[[2-(trifluoromethyl)phenyl]methoxy]phenyl]-7,8-dihydro-5H-pyrido[4,3-d]pyrimidin-6-yl]-3-methyl-butanoic acid 2,2,2-trifluoroacetic acid salt]: the EC50 on human S1PR1 receptor is more than 1000 nM; on human S1PR3 receptor, more than 1000 nM; on human S1PR4 receptor, more than 1000 nM; at human S1PR5 receptor, 10 to 100 nM.
`CC(CC(=O)O)CN1CCc2nc(-c3ccc(OCc4ccc(C(F)(F)F)cc4)cc3F)ncc2C1` (centres unmarked) [Compound 263, 4-[2-[2-fluoro-4-[[4-(trifluoromethyl)phenyl]methoxy]phenyl]-7,8-dihydro-5H-pyrido[4,3-d]pyrimidin-6-yl]-3-methyl-butanoic acid 2,2,2-trifluoroacetic acid salt]: the 50% effective concentration (EC50) is more than 1000 nM at human S1PR1 receptor, more than 1000 nM at human S1PR3 receptor, more than 1000 nM at human S1PR4 receptor and 10 to 100 nM on human S1PR5 receptor.
Turning to `CC(CC(=O)O)CN1CCc2nc(-c3ccc(C(F)(F)Cc4ccc(Cl)cc4)cc3)ncc2C1` (centres unmarked) [Compound 265, 4-(2-(4-(2-(4-chlorophenyl)-1,1-difluoroethyl)phenyl)-7,8-dihydropyrido[4,3-d]pyrimidin-6(5H)-yl)-3-methylbutanoic acid], the half-maximal effective concentration (EC50) at human S1PR1 receptor is more than 1000 nM; at human S1PR3 receptor, more than 1000 nM; at human S1PR4 receptor it was more than 1000 nM; at human S1PR5 receptor, 10 to 100 nM.
As to `C[C@@H](CC(=O)O)CN1CCc2nc(-c3ccc(OCc4ccc(Cl)cc4)cc3)ncc2C1=O` [Compound 267, (S)-4-(2-(4-((4-chlorobenzyl)oxy)phenyl)-5-oxo-7,8-dihydropyrido[4,3-d]pyrimidin-6(5H)-yl)-3-methylbutanoic acid], the EC50 on human S1PR1 receptor was more than 1000 nM; at human S1PR3 receptor, more than 1000 nM; at human S1PR4 receptor, more than 1000 nM; at human S1PR5 receptor it was 10 to 100 nM.
Regarding `CC(CC(=O)O)CN1CCc2nc(-c3ccc(OCc4cccc(Cl)c4Cl)cc3)ncc2C1` (centres unmarked) [Compound 268, 4-[2-[4-[(2,3-dichlorophenyl)methoxy]phenyl]-7,8-dihydro-5H-pyrido[4,3-d]pyrimidin-6-yl]-3-methyl-butanoic acid 2,2,2-trifluoroacetic acid salt], the EC50 at human S1PR1 receptor is more than 1000 nM; at human S1PR3 receptor, more than 1000 nM; on human S1PR4 receptor it was more than 1000 nM; at human S1PR5 receptor, 10 to 100 nM.
Consider `CC(CC(=O)O)CN1CCc2nc(-c3ccc(OCc4ccc(Cl)c(Cl)c4)cc3F)ncc2C1` (centres unmarked) [Compound 271, 4-[2-[4-[(3,4-dichlorophenyl)methoxy]-2-fluoro-phenyl]-7,8-dihydro-5H-pyrido[4,3-d]pyrimidin-6-yl]-3-methyl-butanoic acid 2,2,2-trifluoroacetic acid salt], for which the concentration giving a half-maximal response (EC50) at human S1PR1 receptor was more than 1000 nM; at human S1PR3 receptor, more than 1000 nM; at human S1PR4 receptor, more than 1000 nM; on human S1PR5 receptor it was 10 to 100 nM.
With `Cc1ccc(C(F)(F)F)c(COc2ccc(-c3ncc4c(n3)CCN(CC(C)CC(=O)O)C4)cc2)c1` (centres unmarked) [Compound 275, 3-methyl-4-[2-[4-[[5-methyl-2-(trifluoromethyl)phenyl]methoxy]phenyl]-7,8-dihydro-5H-pyrido[4,3-d]pyrimidin-6-yl]butanoic acid 2,2,2-trifluoroacetic acid salt], the concentration for a half-maximal effect (EC50) on human S1PR1 receptor is more than 1000 nM; at human S1PR3 receptor, more than 1000 nM; at human S1PR4 receptor it was more than 1000 nM; at human S1PR5 receptor, 10 to 100 nM.
With `CC(CC(=O)O)CN1CCc2nc(-c3ccc(C(F)(F)Cc4ccc(Cl)cc4F)cc3)ncc2C1` (centres unmarked) [Compound 277], the 50% effective concentration (EC50) at human S1PR1 receptor is more than 1000 nM; at human S1PR3 receptor, more than 1000 nM; at human S1PR4 receptor it was more than 1000 nM; at human S1PR5 receptor it was 10 to 100 nM.
In the case of `Cc1ccc(COc2ccc(-c3ncc4c(n3)CCN(CC(C)CC(=O)O)C4)c(F)c2)cc1C(F)(F)F` (centres unmarked) [Compound 279, 4-[2-[2-fluoro-4-[[4-methyl-3-(trifluoromethyl)phenyl]methoxy]phenyl]-7,8-dihydro-5H-pyrido[4,3-d]pyrimidin-6-yl]-3-methyl-butanoic acid 2,2,2-trifluoroacetic acid salt], the concentration for a half-maximal effect (EC50) was more than 1000 nM at human S1PR1 receptor, more than 1000 nM on human S1PR3 receptor, more than 1000 nM at human S1PR4 receptor and 10 to 100 nM on human S1PR5 receptor.
As for `O=C(O)CC1(CN2CCc3nc(-c4ccc(OCc5ccc(Cl)cc5)cc4)ncc3C2)CC1` [Compound 281, 2-((4(2-(4-((4-chlorobenzyl)oxy)phenyl)-7,8-dihydropyrido[4,3-d]pyrimidin-6(5H)-yl)methyl)cyclopropyl)acetic acid], the concentration for a half-maximal effect (EC50) on human S1PR1 receptor was more than 1000 nM; at human S1PR3 receptor, more than 1000 nM; on human S1PR4 receptor it was more than 1000 nM; at human S1PR5 receptor, 10 to 100 nM.
Turning to `CC(CC(=O)O)CN1CCc2nc(-c3ccc(OCc4ccc(C(C)(C)C)cc4)cc3F)ncc2C1` (centres unmarked) [Compound 283, 4-[2-[4-[(4-tert-butylphenyl)methoxy]-2-fluoro-phenyl]-7,8-dihydro-5H-pyrido[4,3-d]pyrimidin-6-yl]-3-methyl-butanoic acid 2,2,2-trifluoroacetic acid salt], the EC50 on human S1PR1 receptor is more than 1000 nM; on human S1PR3 receptor, more than 1000 nM; on human S1PR4 receptor, more than 1000 nM; at human S1PR5 receptor, 10 to 100 nM.
As for `CC(CC(=O)O)CN1CCc2nc(-c3ccc(OCc4ccccc4Cl)cc3F)ncc2C1` (centres unmarked) [Compound 284, 4-[2-[4-[(2-chlorophenyl)methoxy]-2-fluoro-phenyl]-7,8-dihydro-5H-pyrido[4,3-d]pyrimidin-6-yl]-3-methyl-butanoic acid 2,2,2-trifluoroacetic acid salt], the concentration for a half-maximal effect (EC50) is more than 1000 nM on human S1PR1 receptor, more than 1000 nM at human S1PR3 receptor, more than 1000 nM at human S1PR4 receptor and 10 to 100 nM at human S1PR5 receptor.
`O=C(O)CC1(CN2CCc3nc(-c4ccc(OCc5cccc(Cl)c5)cc4)ncc3C2)CC1` [Compound 285, 2-((4(2-(4-((3-chlorobenzyl)oxy)phenyl)-7,8-dihydropyrido[4,3-d]pyrimidin-6(5H)-yl)methyl)cyclopropyl)acetic acid]: the EC50 on human S1PR1 receptor was more than 1000 nM; at human S1PR3 receptor, more than 1000 nM; on human S1PR4 receptor it was less than 1000 nM; on human S1PR5 receptor, 100 to 1000 nM.

Values taken from patent US10556907B2 (AbbVie Inc., priority 2015, dated 2020).
